Measured values from patent US20250268884A1, “Deuterated Domperidone for Treating Gastroparesis” (CinDome Pharma, Inc., priority 2022, published 2025).

Tested on: adults with idiopathic or diabetic gastroparesis
Experiment: PAGI-SYM questionnaire total and subscale scores, Phase 2a
Assay type: in vivo, human
Protocol: Subjects were Evaluated as Follows: • Days −28 to −11: Screening procedures were performed. The ANMS GCSI-DD questionnaire was completed daily for at least 14 days prior to randomization (Day 1); • Days −10 to −3: The ANMS GCSI-DD questionnaire was completed daily. A GEBT was performed on a single day within this window, with breath samples obtained twice prior to consumption of a standardized, carbon-13 (^13C)-enriched meal and then at 45, 90, 120, 150, 180, and 240 minutes after meal consumption after an 8-hour fast. […] On Day 14 (±2 days), the PAGI-SYM and Clinical Grading Assessment questionnaires were completed prior to the final dose of study drug. • A GEBT was administered 30 minutes after study drug administration on Day 14 (±2 days). Breath samples were obtained twice prior to ^13C-enriched meal consumption and then at 45, 90, 120, 150, 180, and 240 minutes after meal consumption after an 8-hour fast. If a subject withdrew from the study prior to the Day 14 (±2 days) GEBT, attempts should have been made to perform a GEBT on the last day of study drug administration. Clinical Grading Assessment Scales were also performed.
The PAGI-SYM includes 6 subscales: heartburn/regurgitation, fullness/early satiety, nausea/vomiting, bloating, upper abdominal pain, and lower abdominal pain.

[1] = 10 mg BID, mean, Safety Population
[2] = 20 mg QD, mean, Safety Population

[2H]c1c([2H])c([2H])c2c([nH]c(=O)n2CCCN2CCC(n3c(=O)[nH]c4cc(Cl)ccc43)CC2)c1[2H] [Deudomperidone, 1-{3-[4-(5-chloro-2-oxo-2,3-dihydro-1H-1,3-benzodiazol-1-yl)piperidin-1yl]propyl}-2,3-dihydro(4,5,6,7-D4)-1H-1,3-benzodiazol-2-one] was tested, and the “PAGI-SYM bloating subscale score, Day 14” value [1] was 2.65, the “PAGI-SYM bloating subscale score, Percent change from baseline to Day 14” value [1] was −26.78% and the “PAGI-SYM fullness/early satiety subscale score, Baseline” value [1] was 3.60. The “PAGI-SYM fullness/early satiety subscale score, Change from baseline to Day 14” value [1] was −0.88, the “PAGI-SYM fullness/early satiety subscale score, Day 14” value [1] was 2.71 and the “PAGI-SYM fullness/early satiety subscale score, Percent change from baseline to Day 14” value [1] was −24.08%. The “PAGI-SYM heartburn/regurgitation subscale score, Baseline” value [1] was 2.67, the “PAGI-SYM heartburn/regurgitation subscale score, Change from baseline to Day 14” value [1] was −1.07 and the “PAGI-SYM heartburn/regurgitation subscale score, Day 14” value [1] was 1.62. The “PAGI-SYM heartburn/regurgitation subscale score, Percent change from baseline to Day 14” value [1] was −25.45%, the “PAGI-SYM lower abdominal pain subscale score, Baseline” value [1] was 2.02 and the “PAGI-SYM lower abdominal pain subscale score, Change from baseline to Day 14” value [1] was −0.79. For the same molecule, the “PAGI-SYM lower abdominal pain subscale score, Day 14” value [1] was 1.25, the “PAGI-SYM lower abdominal pain subscale score, Percent change from baseline to Day 14” value [1] was −38.38% and the “PAGI-SYM nausea/vomiting subscale score, Baseline” value [1] was 2.75. For the same molecule, the “PAGI-SYM nausea/vomiting subscale score, Change from baseline to Day 14” value [1] was −0.93, the “PAGI-SYM nausea/vomiting subscale score, Day 14” value [1] was 1.78 and the “PAGI-SYM nausea/vomiting subscale score, Percent change from baseline to Day 14” value [1] was −30.39%. For the same molecule, the “PAGI-SYM total score, Baseline” value [1] was 2.94, the “PAGI-SYM total score, Change from baseline to Day 14” value [1] was −0.97 and the “PAGI-SYM total score, Day 14” value [1] was 1.97. For the same molecule, the “PAGI-SYM total score, Percent change from baseline to Day 14” value [1] was −31.18%, the “PAGI-SYM upper abdominal pain subscale score, Baseline” value [1] was 2.74 and the “PAGI-SYM upper abdominal pain subscale score, Change from baseline to Day 14” value [1] was −0.97. The “PAGI-SYM upper abdominal pain subscale score, Day 14” value [1] was 1.82, the “PAGI-SYM upper abdominal pain subscale score, Percent change from baseline to Day 14” value [1] was −24.47% and the “PAGI-SYM bloating subscale score, Baseline” value [2] was 3.57. The “PAGI-SYM bloating subscale score, Change from baseline to Day 14” value [2] was −1.10, the “PAGI-SYM bloating subscale score, Day 14” value [2] was 2.47 and the “PAGI-SYM bloating subscale score, Percent change from baseline to Day 14” value [2] was −36.38%. The “PAGI-SYM fullness/early satiety subscale score, Baseline” value [2] was 3.42, the “PAGI-SYM fullness/early satiety subscale score, Change from baseline to Day 14” value [2] was −1.10 and the “PAGI-SYM fullness/early satiety subscale score, Day 14” value [2] was 2.32. For the same molecule, the “PAGI-SYM fullness/early satiety subscale score, Percent change from baseline to Day 14” value [2] was −31.45%, the “PAGI-SYM heartburn/regurgitation subscale score, Baseline” value [2] was 2.68 and the “PAGI-SYM heartburn/regurgitation subscale score, Change from baseline to Day 14” value [2] was −1.06. For the same molecule, the “PAGI-SYM heartburn/regurgitation subscale score, Day 14” value [2] was 1.62, the “PAGI-SYM heartburn/regurgitation subscale score, Percent change from baseline to Day 14” value [2] was −34.56% and the “PAGI-SYM lower abdominal pain subscale score, Baseline” value [2] was 1.93. The “PAGI-SYM lower abdominal pain subscale score, Change from baseline to Day 14” value [2] was −0.40, the “PAGI-SYM lower abdominal pain subscale score, Day 14” value [2] was 1.53 and the “PAGI-SYM lower abdominal pain subscale score, Percent change from baseline to Day 14” value [2] was −10.91%. The “PAGI-SYM nausea/vomiting subscale score, Baseline” value [2] was 2.49, the “PAGI-SYM nausea/vomiting subscale score, Change from baseline to Day 14” value [2] was −1.20 and the “PAGI-SYM nausea/vomiting subscale score, Day 14” value [2] was 1.29. The “PAGI-SYM nausea/vomiting subscale score, Percent change from baseline to Day 14” value [2] was −50.18%, the “PAGI-SYM total score, Baseline” value [2] was 2.72 and the “PAGI-SYM total score, Change from baseline to Day 14” value [2] was −0.93. The “PAGI-SYM total score, Day 14” value [2] was 1.80, the “PAGI-SYM total score, Percent change from baseline to Day 14” value [2] was −39.03% and the “PAGI-SYM upper abdominal pain subscale score, Baseline” value [2] was 2.27. The “PAGI-SYM upper abdominal pain subscale score, Change from baseline to Day 14” value [2] was −0.70, the “PAGI-SYM upper abdominal pain subscale score, Day 14” value [2] was 1.57 and the “PAGI-SYM upper abdominal pain subscale score, Percent change from baseline to Day 14” value [2] was −32.81%. For the same molecule, the “PAGI-SYM total and subscale scores at Day 14” value (all deudomperidone treatment groups, placebo also decreased) was “decreased from baseline”.
